Source: patent publication US8853228B2, “Heterocyclic analogs of propargyl-linked inhibitors of dihydrofolate reductase” (University of Connecticut, priority 2011, dated 2014)
Values after ≈ are worked out from the molar mass of the structure shown. Like-named read-outs stand apart in the source and are kept apart here.

Experiments:
hDHFR = hDHFR (Homo sapiens (Human), UniProt P00374); assay: hDHFR enzyme inhibition assay; format: biochemical
Protocol: hDHFR: The gene for hDHFR was amplified using PCR from cDNA obtained from ATCC. The gene was inserted in a pET41 vector with a C-terminal histidine tag for affinity chromatography. The resulting construct was verified by sequencing. The hDHFR protein was expressed in E. coli and purified using a nickel affinity column.
(§1) Enzyme and inhibitor were allowed to incubate for 5 min before adding dihydrofolate to initiate the reaction. Enzyme assays were performed at least four times. IC50 values and their standard deviations were calculated in the presence of varying concentrations of inhibitor near the IC50 concentration.
(§2) Enzyme inhibition assays were performed by monitoring the rate of NADPH oxidation by the DHFR enzyme at an absorbance of 340 nm. Assays were performed in the presence of saturating concentrations of NADPH and initiated with dihydrofolate. All assays were completed at 25° C. in a buffer containing 20 mM TES pH 7.0, 50 mM KCl, 10 mM 2-mercaptoethanol, 0.5 mM EDTA and 1 mg/mL BSA. Inhibition was measured at least three times with inhibitor concentrations near the IC50 value and the average IC50 value is reported with a standard deviation.

S. aureus DHFR = S. aureus DHFR (Staphylococcus aureus, UniProt P0A017); format: biochemical; conditions: for Selectivity (h/Sa): IC50 (human)/IC50 (pathogen); for IC50: average of at least three measurements
Protocol: as §2

S. pyogenes DHFR = S. pyogenes DHFR (Streptococcus pyogenes, UniProt Q9A091); assay: S. pyogenes DHFR enzyme inhibition assay; format: biochemical; conditions: for Selectivity (h/Sp): IC50 (human)/IC50 (pathogen); for IC50: average of at least three measurements
S. pyogenes DHFR, sequence (Q9A091 1-165): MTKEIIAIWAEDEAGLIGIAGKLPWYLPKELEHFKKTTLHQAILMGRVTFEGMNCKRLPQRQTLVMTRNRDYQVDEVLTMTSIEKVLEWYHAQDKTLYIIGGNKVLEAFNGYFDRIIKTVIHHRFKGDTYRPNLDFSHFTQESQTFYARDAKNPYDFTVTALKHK
Protocol: as §2

S. aureus 13709 (MRSA) = assay: Antibacterial MIC, broth microdilution with Alamar Blue; format: cell-based, Staphylococcus aureus; conditions: for Selectivity MRSA: IC50 (MCF10)/MIC (pathogen); for MIC MRSA: Table 6
Protocol: (§3) For susceptibility testing, 10 μL of glycerol stock was suspended in a 10 mL shake flask culture of chemically defined Isosensitest broth (Oxoid) supplemented with 2% w/v glucose. A sample of the shake flask culture was diluted to 1×10^6 cells/mL in media and added to 96-well test plates (100 μL per well) containing test compounds dispensed in DMSO (2 μL). After an incubation period (30° C.) determined from the strain specific doubling time, a 0.03% w/v aqueous solution of resazurin (10 μL) was added and the plates were allowed to incubate; each well was then scored for dye reduction.

Streptococcus pyogenes = assay: as above; format: cell-based; conditions: for Selectivity S. pyogenes: IC50 (MCF10)/MIC (pathogen); for MIC S. pyogenes: Table 6
Protocol: as §3

MCF-10 cells = assay: Mammalian cell toxicity, MCF-10; format: cell-based, human; conditions: cytotoxicity
Protocol: (§4) Adherent cell lines were maintained in Eagle's Minimal Essential Media (Sigma-Aldrich, St. Louis, Mo., USA) with 2 mM glutamine and Earle's Balanced Salt Solution (HyClone, Logan, Utah, USA) adjusted to contain 1.5 g/L sodium bicarbonate, 0.1 mM non-essential amino acids, 1 mM sodium pyruvate and 10% fetal calf serum. Fetal calf serum used in these assays was lot matched throughout. […] Toxicity assays were conducted between passages 10-20. Target compound toxicity was measured by incubating the test compound with the cells for 4 h, washing the cells and finally treating the cells with Alamar Blue. After 12-24 h, the fluorescence of the reduced dye was measured. Fluorescence intensity as a function of test compound concentration was fit to the Fermi equation, using non-linear least squares regression analysis, to estimate IC50 values.

HepG2 cells = assay: Mammalian cell toxicity, HepG2; format: cell-based; conditions: cytotoxicity
Protocol: as §4

CgDHFR = CgDHFR (Candida glabrata (strain ATCC 2001 / BCRC 20586 / JCM 3761 / NBRC 0622 / NRRL Y-65 / CBS 138) (Yeast) (Nakaseomyces glabratus), UniProt Q6FPH0); assay: biochemical; conditions: for IC50: Table 7, read-out: IC50 (CgDHFR)
CgDHFR, sequence (Q6FPH0 1-217): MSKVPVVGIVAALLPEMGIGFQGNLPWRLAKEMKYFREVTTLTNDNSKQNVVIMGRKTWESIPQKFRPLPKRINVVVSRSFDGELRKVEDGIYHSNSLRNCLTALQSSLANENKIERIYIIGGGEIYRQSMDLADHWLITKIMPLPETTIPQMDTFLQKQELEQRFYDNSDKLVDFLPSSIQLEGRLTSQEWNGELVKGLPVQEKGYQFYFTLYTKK
Excerpt: CgDHFR: The gene coding CgDHFR was amplified by PCR from C. glabrata genomic DNA obtained from ATCC. The gene was inserted in a pET41 vector that includes a C-terminal histidine tag for nickel affinity chromatography. E. coli cells were transformed and the resulting plasmid was verified by sequencing. The protein was expressed in E. coli BL21(DE3) cells with isopropyl β-D-thiogalactoside induction. Following growth, the cells were lysed with BugBuster (Novagen) and centrifuged; the supernatant was loaded on a Ni-NTA column. The column was washed with 20 mM Tris (pH 8.0)/0.4 M NaCl and the protein was eluted using a gradient of 20 mM Tris (pH 8.0), 0.3 M NaCl, 20% glycerol, 0.1 mM EDTA, 2 mM DTT, 250 mM imidazole. Fractions containing CgDHFR were identified by SDS-PAGE, combined and desalted using a PD-10 column with a buffer containing 20 mM Tris pH 8.0, 20% glycerol, 0.1 mM EDTA and 2 mM DTT. The protein was concentrated to 13 mg/mL.
as §1

C. glabrata = assay: Antifungal assay (MIC, Alamar Blue); format: cell-based, Candida glabrata; conditions: for MIC (Cg): C. glabrata, YM media; for antifungal MIC C. glabrata: cell growth inhibition (Table 7 conditions); for MIC C. glabrata: IsoSensitest media supplemented with 2% glucose (thymidine-depleted)
Protocol: Antifungal assays were performed using C. glabrata as a suspension in 50% glycerol at −78° C. For susceptibility testing, a streak of stock culture was made on SDA agar and grown at 30° C. for 48 h. One pure colony of the test organism was recovered from the plate, suspended in appropriate media and grown in a 5 mL shake flask culture. A sample of the shake flask culture was diluted to 1×10^5 cells/mL in media and added to 96-well test plates (100 μL per well) containing test compounds dispensed in DMSO (1 μL). Amphotericin and ketoconazole were used as controls. After an incubation period determined from the strain specific doubling time, Alamar Blue (10 μL) was added, allowed to incubate; each well was scored for dye reduction.
Several representative compounds were also evaluated in thymidine-depleted media. It has been shown that high levels of thymidine interfere with accurate susceptibility testing of antifolates. To compensate for this, antifolates are frequently evaluated in a controlled minimal media with a low thymidine concentration. […] In addition, the compounds were also evaluated for mammalian cell toxicity using MCF-10 and HepG2 cell lines. Cellular selectivity is reported as the IC50 value for the MCF-10 human cell line divided by the MIC value (μg/mL) (Table 8).

ChDHFR-TS = ChDHFR-TS (Cryptosporidium hominis, UniProt Q27552); assay: ChDHFR enzyme inhibition assay; format: biochemical; conditions: IC50 against ChDHFR
ChDHFR-TS, sequence (Q27552 1-521): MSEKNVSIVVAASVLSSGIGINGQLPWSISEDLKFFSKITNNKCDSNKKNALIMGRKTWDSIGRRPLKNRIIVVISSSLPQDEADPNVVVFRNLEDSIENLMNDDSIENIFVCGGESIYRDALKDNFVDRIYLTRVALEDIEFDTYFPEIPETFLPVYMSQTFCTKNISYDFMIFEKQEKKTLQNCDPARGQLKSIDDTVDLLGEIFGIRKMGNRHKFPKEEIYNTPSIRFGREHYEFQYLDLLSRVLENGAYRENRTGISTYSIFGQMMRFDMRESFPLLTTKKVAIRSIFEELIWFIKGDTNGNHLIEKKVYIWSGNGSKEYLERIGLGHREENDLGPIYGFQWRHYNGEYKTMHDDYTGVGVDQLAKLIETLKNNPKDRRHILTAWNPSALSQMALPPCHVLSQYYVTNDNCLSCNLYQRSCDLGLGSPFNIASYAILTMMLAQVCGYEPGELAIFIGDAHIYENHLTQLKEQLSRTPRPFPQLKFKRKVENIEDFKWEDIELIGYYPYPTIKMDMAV
Protocol: as §1
Compounds were evaluated in spectrophotometric enzyme assays using ChDHFR-TS and hDHFR. Inhibition constants (IC50) were measured (see Table 4). […] The compound abbreviations in Table 4 refer to the following compounds: […]

TgDHFR = TgDHFR (Toxoplasma gondii, UniProt Q07422, DEL43-70); assay: TgDHFR enzyme inhibition assay; format: biochemical
TgDHFR, sequence (Q07422 71-250, added parts left off, stated change not applied): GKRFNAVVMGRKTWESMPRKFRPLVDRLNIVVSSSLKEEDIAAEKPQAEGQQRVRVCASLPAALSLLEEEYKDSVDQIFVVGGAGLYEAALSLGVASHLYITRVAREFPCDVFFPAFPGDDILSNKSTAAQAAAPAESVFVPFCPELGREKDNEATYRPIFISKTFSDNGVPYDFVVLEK
Protocol: These residues were removed, leaving a five residue loop region characteristic of several other species of DHFR.
as §1

[1] = Table 5, average of at least three measurements, read-out: IC50 human
[2] = Table 7, read-out: IC50 (hDHFR)

hDHFR, sequence (P00374 whole entry): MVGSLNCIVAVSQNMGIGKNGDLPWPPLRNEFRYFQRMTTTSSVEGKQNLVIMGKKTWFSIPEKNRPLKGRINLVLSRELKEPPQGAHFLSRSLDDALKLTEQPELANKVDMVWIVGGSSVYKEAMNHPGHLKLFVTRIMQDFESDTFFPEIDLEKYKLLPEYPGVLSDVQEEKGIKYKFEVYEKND

| SMILES | IC50 (hDHFR; [1]) [nM] | Selectivity (h/Sa) (S. aureus DHFR) | IC50 (S. aureus DHFR) [nM] | Selectivity (h/Sp) (S. pyogenes DHFR) | IC50 (S. pyogenes DHFR) [nM] | Selectivity MRSA (S. aureus 13709 (MRSA)) | MIC MRSA (S. aureus 13709 (MRSA)) [µg/mL] | Selectivity S. pyogenes (Streptococcus pyogenes) | MIC S. pyogenes (Streptococcus pyogenes) [µg/mL] | IC50 (MCF-10 cells; Table 6) [nM] | IC50 (HepG2 cells; Table 6) [nM] | also measured |
| --- | --- | --- | --- | --- | --- | --- | --- | --- | --- | --- | --- | --- |
| CCc1nc(N)nc(N)c1C#CCc1cccc(-c2ccccc2)c1 [Compound 143] | 290 ± 36 | 10 | 28 ± 1.7 | 11 | 26 ± 1.7 | 45 | 0.71 (≈ 2.16 µM) | 842 | 0.04 (≈ 0.122 µM) | 32000 |  |  |
| CCc1nc(N)nc(N)c1C#CCc1cccc(-c2ccncc2)c1 [Compound 151] | 520 ± 23 | 26 | 20 ± 0.5 | 17 | 30 ± 1.7 | 11,585 | 0.041 (≈ 0.124 µM) | 11,875 | 0.04 (≈ 0.121 µM) | 475000 | > 500000 |  |
| COc1cc(-c2ccncc2)cc(C(C)C#Cc2c(C)nc(N)nc2N)c1 (stereo not shown) [Compound 147] | 1500 ± 8 |  | 26 ± 2 |  | 160 ± 9 |  | 0.09 (≈ 0.25 µM) |  | 0.012 (≈ 0.0334 µM) | 220000 | 233000 | IC50 (hDHFR; [2]): 1500 ± 83 nM; IC50 (CgDHFR): 97 ± 9 nM; MIC (Cg) (C. glabrata): 1.4 µg/mL (≈ 3.9 µM); antifungal MIC C. glabrata (C. glabrata): 1.4 to 1.5 µg/mL |
| COc1cc([C@@H](C)C#Cc2c(C)nc(N)nc2N)cc(OC)c1OC [137(R), 2,4-Diamino-5-((R)-3-(3,4,5-trimethoxyphenyl)but-1-ynyl)-6-methylpyrimidine] |  |  |  |  |  |  |  |  |  |  |  | IC50 (ChDHFR-TS): < 100000 nM; IC50 (TgDHFR): < 100000 nM |
| CCc1nc(N)nc(N)c1C#CCc1cccc(-c2cccnc2)c1 [Compound 154] | 290 ± 15 | 9 | 33 ± 0.5 | 6 | 47 ± 4.6 | >20,000 | 0.041 (≈ 0.124 µM) | >20,000 | 0.08 (≈ 0.243 µM) | > 500000 | > 500000 |  |
| CCc1nc(N)nc(N)c1C#CCc1cc(-c2ccncc2)ccc1OC [Compound 149] | 330 ± 12 | 16 | 21 ± 1 | 17 | 19 ± 1.3 | >20,000 | 0.01 (≈ 0.0278 µM) | 3,867 | 0.09 (≈ 0.25 µM) | 217000 | 199000 |  |
| COc1ccc(-c2ccccc2)cc1C(C)C#Cc1c(C)nc(N)nc1N (stereo not shown) [Compound 145] | 97 ± 10 | 1.3 | 75 ± 4 | 4 | 23 ± 1.5 | 53 | 0.716 (≈ 2 µM) | 950 | 0.04 (≈ 0.112 µM) | 38000 | 94000 |  |
| COc1cc(C(C)C#Cc2c(C)nc(N)nc2N)cc(N2C[C@@H](C)O[C@@H](C)C2)c1 (mixture of isomers) [Compound 156] |  |  |  |  |  |  |  |  |  |  |  | IC50 (hDHFR; [2]): 330 ± 6 nM; Selectivity (CgDHFR; Table 7, hDHFR vs CgDHFR): 4.9 ± 0.4; IC50 (CgDHFR): 68 ± 5 nM; MIC (Cg) (C. glabrata): 6.3 µg/mL (≈ 15.9 µM); Selectivity Index (C. glabrata; IC50 (MCF-10)/MIC (C. glabrata)): 108; MIC C. glabrata (C. glabrata): 2.9 µg/mL (≈ 7.33 µM); IC50 (MCF-10 cells; Table 8): 314000 nM; IC50 (HepG2 cells; Table 8): 193000 nM |
| CCc1nc(N)nc(N)c1C#CC(C)c1cc(-c2ccccc2)ccc1OC (stereo not shown) [Compound 146] | 100 ± 10 | 1.5 | 67 ± 5.5 | 4 | 26 ± 2.5 | 72 | 0.744 (≈ 2 µM) | 675 | 0.08 (≈ 0.215 µM) | 54000 | 77000 |  |
| CCc1nc(N)nc(N)c1C#CCc1cc(OC)cc(-c2ccccc2)c1 [Compound 144] | 140 ± 1 | 2.4 | 59 ± 2.3 | 3 | 52 ± 1.7 | 2500 | 0.08 (≈ 0.223 µM) | 603 | 0.33 (≈ 0.921 µM) | 199000 |  |  |
| CCc1nc(N)nc(N)c1C#CCc1cc(-c2ccccc2)ccc1OC [Compound 142] | 300 ± 10 | 125 | 2.4 ± 0.2 | 51 | 5.9 ± 0.2 | 372 | 0.18 (≈ 0.502 µM) | 11,167 | 0.006 (≈ 0.0167 µM) | 67000 |  | improvement in potency against S. aureus DHFR (S. aureus DHFR; relative to compound 140): 18 fold |
| CCc1nc(N)nc(N)c1C#CC(C)c1cc(OC)cc(-c2ccncc2)c1 (stereo not shown) [Compound 148] | 1300 ± 11 |  | 19 ± 1 |  | 180 ± 19 |  | 0.09 (≈ 0.241 µM) |  | 0.012 (≈ 0.0321 µM) | 85000 | 171000 | IC50 (hDHFR; [2]): 1300 ± 11 nM; IC50 (CgDHFR): 89 ± 8 nM; MIC (Cg) (C. glabrata): 1.5 µg/mL (≈ 4.02 µM); MIC C. glabrata (C. glabrata): 0.36 µg/mL (≈ 0.964 µM); antifungal MIC C. glabrata (C. glabrata): 1.4 to 1.5 µg/mL; IC50 (MCF-10 cells; Table 8): 85000 nM; IC50 (HepG2 cells; Table 8): 171000 nM |
| CCc1nc(N)nc(N)c1C#CCc1cccc(-c2cncnc2)c1 [Compound 155] | 160 ± 13 | 5 | 35 ± 1.1 | 7 | 23 ± 1.2 | 3,333 | 0.15 (≈ 0.454 µM) | 26,316 | 0.019 (≈ 0.0575 µM) | > 500000 |  |  |
| CCc1nc(N)nc(N)c1C#CCc1cc(OC)cc(-c2ccncc2)c1 [Compound 150] | 61 ± 5.7 | 5 | 12 ± 2.4 | 2 | 28 ± 4 | 9,089 | 0.045 (≈ 0.125 µM) | 10,225 | 0.04 (≈ 0.111 µM) | 409000 | 465000 |  |
